Laboratory results reported in patent US20260014278A1, “HYBRID PEPTIDE DENDRIMER SYSTEMS AND EXTRAHEPATIC DELIVERY” (NUNTIUS THERAPEUTICS LIMITED, priority 2022, published 2026).

Assays:
HeLa cells = test: Luciferase plasmid (pCl-Luc) DNA transfection of HeLa cells; assay type: cell-based, human; details: for transfection, comparison of generations G1, G2, G3: pCl-Luc with D/D, 24 h, FIG. 16A
Description: (§1) FIG. 15. Comparison of the transfection efficiency of G1,2,3-RL with other commercial transfection reagents including DOTMA/DOPE, Polyethylenimine and Lipofectamine 2000 for DNA delivery. (A) Transfection in HeLa cells without the presence of serum, (B) transfection in HeLa cells with the presence of serum, (C) transfection in Neuro2A cells without the presence of serum and (D) transfection in Neuro2A cells with the presence of serum. Cells transfected with a luciferase-expressing plasmid (pCl-Luc) in the presence of GSCG1,2,3-RL with D/D (measured 24 h after transfection). The luminescence values were normalized by dividing them by the analogous values for cells treated with a D/D DNA complex to generate the % of transfection. Conditions: 1×10^4 cells were transfected with 0.25 μg pCl-Luc for 4 hours without serum or in the presence of 10% serum. Error bars refer to the mean±SEM for experiments carried out in triplicate. […] D/D is DOTMA/DOPE at w/w 1:1.
(§2) FIG. 16. Comparison of the transfection efficiency of dendrimers with different generations (G1, G2 and G3) with different N/P ratios and cationic residues (e.g. KL vs RL) for DNA delivery. (A) Transfection efficiency in HeLa cells, (B) transfection efficiency in Neuro2A cells. Cells transfected with a luciferase-expressing plasmid (pCl-Luc) in the presence of peptide dendrimers with D/D (measured 24 h after transfection). The luminescence values were normalized by dividing them by the analogous values for cells treated with a D/D DNA complex (w/w 1:1, 0.25 μg) to generate the % of transfection. Conditions: 1×10^4 cells were transfected with 0.25 μg pCl-Luc. Error bars refer to the mean±SEM for experiments carried out in triplicate. * denotes p<0.05. D/D is DOTMA/DOPE at w/w 1:1. Generation 2 and generation 3 dendrimers perform better at transfecting both HeLa and Neuro2A cells compared to generation 1 dendrimers.
(§3) Using a third generation peptide dendrimer, GSCG1,2,3-RL, the inventors also compared the transfection efficiency of DNA using this dendrimer to that of commercially available transfection reagents. […]

Neuro2A cells = test: Luciferase plasmid (pCl-Luc) DNA transfection of Neuro2A cells; assay type: cell-based; details: for transfection, comparison of generations G1, G2, G3: pCl-Luc with D/D, 24 h, FIG. 16B
Description: as §1, §2, §3

[1] = system: macrophage-polarised primary bone marrow derived monocytes; test: eGFP mRNA transfection of macrophage-polarised primary mouse bone marrow derived monocytes, flow cytometry; assay type: cell-based; details: GSCG1,2-RHL NP=0.6:1, GSCG1,2-RL, 3-LR NP=0.16:1, GSCG1,RL, 2-LR NP=8:1, DOTMA:DOPE w/w 10:1, lipid-only DOTMA/DOPE w/w 3.2:1, FIG. 2
Method: BMDM cells were isolated using the StemCell Tech EasySep Mouse Monocyte Isolation Kit from mouse bone marrow cell suspension. The cells were resuspended in complete medium (DMEM+1% glutamax+10% heat inactivated FBS+1% Pen/Strep) enriched with 50 ng/ml murine M-CSF (1:1000 of 50 μg/ml stock) at 1E+6 cells/mi. 2 million cells (i.e. 2 mL) was seeded in each well of 6-well plate(s). The plate was incubated at 37° C. for 4 days. Half media exchange was performed using complete media enriched with […] murine M-CSF and 40 ng/ml murine IL-4. Cells were then harvested the next day (day 5) by washing cells with PBS and a 10 minute incubation with 5 mM EDTA (diluted in PBS) at 37° C. followed by plate tapping and resuspension. […]
Data were collected using a BD LSRFortessa I analyser running […] software (Beckton Dickinson). All collected data were analysed using FlowJo 10.0 software.
Transfection efficiency of macrophage-polarised primary bone marrow derived monocytes using various peptide dendrimer/lipid nanoparticles was assessed and compared to lipid-only nanoparticles (LPX-RNA). Each nanoparticle, with or without dendrimer, included eGFP mRNA to allow analysis of absolute numbers of cells transfected to be assessed by flow cytometry. […]

[2] = Dynamic light scattering: hydrodynamic size and polydispersity index (PDI) of nanoparticles; assay type: physicochemical
Method: (§4) The hydrodynamic size was measured using the dynamic light scattering (DLS) technique. DLS is a very sensitive, non-invasive method to measure size and size distribution of nanoparticles in a liquid. […] Analysing these intensity fluctuations allows us to calculate the velocity of the Brownian motion. The size of the nanoparticles can be determined by using the Stokes-Einstein relationship. With the latest technology, it can measure nanoparticles smaller than 1 nm.
PDI is used to estimate the average uniformity of a particle solution, The method of cumulants is a standard technique for analysing DLS data on sample polydispersity. PDI is a number calculated from a 2 parameter fit to the correlation data (the cumulants analysis). The cumulants analysis is used to evaluate the autocorrelation function generated by a DLS experiment. The calculation is defined in ISO 13321 and ISO 22412. PDI values greater than 0.7 indicate that the sample has a very broad size distribution and is not suitable for the DLS technique. The calculations for these parameters are defined in the ISO standard document 13321:1996 E and ISO 22412:2008.
as §4, with “Size, zeta potential and polydispersity index (PDI) measurement: The hydrodynamic” for “The hydrodynamic”, “scattering (DLS) technique using the Zetasizer Advance Series—Pro (Malvern Panalytical Ltd, Malvern, UK) according to the manufacturer's instructions. DLS is” for “scattering (DLS) technique. DLS is”
The data obtained with DLS measurements can also be used to calculate the PDI of particle in solution. PDI is used to estimate the average uniformity of a particle solution. The method of cumulants is a standard technique for analysing DLS data on sample polydispersity. PDI is a number calculated from a 2 parameter fit to the correlation data (the cumulants analysis). The cumulants analysis is used to evaluate the autocorrelation function generated by a DLS experiment. The calculation is defined in ISO 13321 and ISO 22412. PDI values greater than 0.7 indicate that the sample has a very broad size distribution and is not suitable for the DLS technique. The calculations for these parameters are defined in the ISO standard document 13321:1996 E and ISO 22412:2008.
To measure the size and PDI, the samples were diluted 16× in 25 mM HEPES buffer (5 μl sample+75 μl buffer). Parameters: reference material: polystyrene latex, dispersant: water, 25° C. The PDI measurements were measured in nanoparticles comprising a dendrimer:nucleic acid NP ratio of 8:1.

human THP-1 cells = test: eGFP mRNA transfection of human THP-1 macrophages, flow cytometry; assay type: cell-based; details: GSCG1,2-RL, 3-LR NP=0.16:1, GSCG1-LRLR NP=0.6, GSCG1,2-RHL NP=5:1, GSCG1,2-RF, 3HL NP=0.6:1, RHCG1-R NP=0.6:1, DOTMA:DOPE w/w 10:1, lipid-only w/w 3.2:1, FIG. 3
Method: THP-1 cells (a human leukaemia monocytic cell line) were sub-cultured in RPMI (with glutamax)+10% heat inactivated FBS (complete media) at 3E+5 cells/ml and passaged every 3-4 days. For macrophage polarisation 7.5E+6 cells were seeded in T75 flasks in a total of 20 ml complete media containing 5 ng/ml PMA (1:1000 of 5 ug/ml stock). The cells were transferred to the 37° C. incubator for overnight. After 24 hrs, THP-1 cells were washed with complete medium and a fresh flask complete medium (not containing PMA) was overlaid on the cells. After a further 72 hrs, the complete medium was exchanged for fresh complete media containing 20 ng/ml rhlL-4 (1:500 of 10 μg/ml stock). 24 hrs later the cells were harvested by firstly washing the cells with PBS followed by a 5 minute treatment at 37° C. with 5 mM EDTA (diluted in PBS). Cells were spun down at 300 g for 5 minutes and resuspended in a complete medium containing 20 ng/ml rhlL-4 at 2.4E+5 cells/mi. 500 ul of cells were seeded into each well on a 24-well plate and left overnight in the 37° C. incubator.
The medium overlaying the polarised THP-1 cells was aspirated and exchanged with 480 ul/well complete media containing 20 ng/ml rhlL-4. […]
Data were collected using a BD LSRFortessa I analyser running […] software (Beckton Dickinson). All collected data were analysed using FlowJo 10.0 software. […]

Which results are given for (RL)4(KRL)2KGSC-NH2 [GSCG1,2-RL]?
transfection efficiency in comparison to GSCG1,2-KL (HeLa cells; N/P ratio of 10:1 or 20:1, FIG. 16): higher transfection efficiency; transfection efficiency in comparison to GSCG1,2-KL (Neuro2A cells; N/P ratio of 20:1, FIG. 16): higher transfection efficiency

What does the source list for (KL)2KGSC-NH2 [GSCG1-KL]?
transfection, comparison of generations G1, G2, G3 (HeLa cells): do not transfect; transfection, comparison of generations G1, G2, G3 (Neuro2A cells): do not transfect

Which results are given for (LR)4(KRL)2KRHC-NH2 [RHCG1-RL, 2-LR]?
transfection efficiency [1]: ~50%; Polydispersity Index (PDI) ([2]; peptide dendrimer, lipid and mRNA complexes, N:P 8:1, DOTMA/DOPE w/w 10:1 to mRNA): 0.109

Which results are given for (RL)2KGSC-NH2 [GSCG1-RL]?
transfection, comparison of generations G1, G2, G3 (HeLa cells): do not transfect; transfection, comparison of generations G1, G2, G3 (Neuro2A cells): do not transfect

What does the source list for (R)2KRHC-NH2 [RHCG1-R]?
transfection efficiency (human THP-1 cells): 30-35%; PDI ([2]; Table 7, first generation dendrimers for mixed dendrimer nanoparticles): 0.566
